Assay results: ChEMBL document CHEMBL1201862, “PubChem BioAssay data set” (2004)
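Interpolation was linear, between the two tested concentrations surrounding the appropriate level; five concentrations were tested over 48 hours in 96-well plates. At the GI50, growth is halved.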 Active and inactive are the calls of the source. Cut-off read from the data, not from the text of the source: active = GI50 up to about 1.1 µM and inactive = higher.

Columns and labels:
Test in all cases: inhibition of tumour cell growth, NCI panel, 48 h
[1] = tested on: CAKI-1
[2] = tested on: NCI-H23
[3] = tested on: TK-10
[4] = tested on: K562
[5] = tested on: SNB-78
[6] = tested on: OVCAR-3
[7] = tested on: HL-60
[8] = tested on: HCT-116
[9] = tested on: HCC 2998
[10] = tested on: CCRF-CEM
[11] = tested on: RXF 393
[12] = tested on: HOP-92
[13] = tested on: MOLT-4
[14] = tested on: A549
[15] = tested on: LXFL 529
[16] = tested on: OVCAR-4
[17] = tested on: A498
[18] = tested on: KM12
[19] = tested on: HOP-62
[20] = tested on: SK-MEL-2
[21] = tested on: KM-20L2
[22] = tested on: M19-MEL
[23] = tested on: UO-31
[24] = tested on: SF-539
[25] = tested on: SK-OV-3
[26] = tested on: SNB-19
[27] = tested on: NCI-H460
[28] = tested on: IGROV-1
[29] = tested on: SN12C
[30] = tested on: SW-620
[31] = tested on: Malme-3M
[32] = tested on: LOX IMVI
[33] = tested on: ACHN
[34] = tested on: HOP-18
[35] = tested on: HCT-15
[36] = tested on: 786-0
[37] = tested on: DLD-1
[38] = tested on: OVCAR-5
[39] = tested on: M14
[40] = tested on: RPMI-8226
[41] = tested on: SK-MEL-28
[42] = tested on: DMS-273
[43] = tested on: UACC-62
[44] = tested on: SR
[45] = tested on: DMS-114
[46] = tested on: EKVX
[47] = tested on: COLO 205
[48] = tested on: SNB-75
[49] = tested on: SF-268
[50] = tested on: SK-MEL-5
[51] = tested on: NCI-H226
[52] = tested on: HT-29
[53] = tested on: OVCAR-8
[54] = tested on: U-251
[55] = tested on: SF-295
[56] = tested on: UACC-257
[57] = tested on: XF498
[58] = tested on: NCI-H522

Measured: GI50

O=C(Cc1ccc([N+](=O)[O-])c([N+](=O)[O-])c1CC(=O)C(=O)Nc1cc(Cl)ccc1Cl)C(=O)Nc1cc(Cl)ccc1Cl
21.7 µM: [35]
inactive: [1] > 100 µM | [2] > 100 µM | [3] > 100 µM | [4] 33.5 µM | [5] 80 µM | [6] > 100 µM | [7] > 100 µM | [8] > 100 µM | [9] > 100 µM | [10] 17.9 µM | [11] 30.8 µM | [12] > 100 µM | [13] 30 µM | [14] > 100 µM | [15] > 100 µM | [16] > 100 µM | [17] > 100 µM | [18] > 100 µM | [19] > 100 µM | [20] > 100 µM | [21] > 100 µM | [22] > 100 µM | [23] > 100 µM | [24] > 100 µM | [25] > 100 µM | [26] > 100 µM | [27] 72.6 µM | [28] > 100 µM | [29] 59.8 µM | [30] 37.9 µM | [31] > 100 µM | [32] 26.2 µM | [33] > 100 µM | [34] > 100 µM | [36] > 100 µM | [37] > 100 µM | [38] > 100 µM | [39] > 100 µM | [40] 28 µM | [41] > 100 µM | [42] 30.3 µM | [43] > 100 µM | [44] > 100 µM | [45] 45.5 µM | [46] > 100 µM | [47] 22.9 µM | [48] > 100 µM | [49] > 100 µM | [50] > 100 µM | [51] 82.2 µM | [52] > 100 µM | [53] > 100 µM | [54] 24.2 µM | [55] > 100 µM | [56] > 100 µM

COc1ccccc1NC(=O)c1nc2ccc([N+](=O)[O-])cc2nc1C
> 100 µM: [35]
inactive: [1] > 100 µM | [2] > 100 µM | [3] > 100 µM | [4] > 100 µM | [6] > 100 µM | [8] > 100 µM | [9] > 100 µM | [10] > 100 µM | [12] 51.8 µM | [13] > 100 µM | [14] > 100 µM | [15] > 100 µM | [16] > 100 µM | [17] > 100 µM | [18] > 100 µM | [19] 97.1 µM | [20] > 100 µM | [21] > 100 µM | [22] > 100 µM | [23] > 100 µM | [24] > 100 µM | [25] > 100 µM | [26] > 100 µM | [27] > 100 µM | [28] > 100 µM | [29] > 100 µM | [30] > 100 µM | [31] > 100 µM | [32] > 100 µM | [33] > 100 µM | [36] > 100 µM | [37] > 100 µM | [38] > 100 µM | [57] 21 µM | [39] > 100 µM | [40] > 100 µM | [41] > 100 µM | [42] > 100 µM | [43] > 100 µM | [45] > 100 µM | [46] > 100 µM | [47] > 100 µM | [48] 65.3 µM | [49] > 100 µM | [50] > 100 µM | [51] 99.3 µM | [52] > 100 µM | [53] > 100 µM | [54] > 100 µM | [58] 57.8 µM | [56] > 100 µM
active: [34] 0.238 µM
